Molecules are shown by their SMILES. Where only a bound is given, the exact number is not on record here.

This assay deals with T1, human full-length MKNK1 (Homo sapiens, UniProt Q9BUB5, T385D).
T1 construct: GST (N); purchased Carna Biosciences 02-145; host or cells: insect cells (baculovirus expression system)
T1 sequence (Q9BUB5 1-424 isoform Q9BUB5-2 T344D): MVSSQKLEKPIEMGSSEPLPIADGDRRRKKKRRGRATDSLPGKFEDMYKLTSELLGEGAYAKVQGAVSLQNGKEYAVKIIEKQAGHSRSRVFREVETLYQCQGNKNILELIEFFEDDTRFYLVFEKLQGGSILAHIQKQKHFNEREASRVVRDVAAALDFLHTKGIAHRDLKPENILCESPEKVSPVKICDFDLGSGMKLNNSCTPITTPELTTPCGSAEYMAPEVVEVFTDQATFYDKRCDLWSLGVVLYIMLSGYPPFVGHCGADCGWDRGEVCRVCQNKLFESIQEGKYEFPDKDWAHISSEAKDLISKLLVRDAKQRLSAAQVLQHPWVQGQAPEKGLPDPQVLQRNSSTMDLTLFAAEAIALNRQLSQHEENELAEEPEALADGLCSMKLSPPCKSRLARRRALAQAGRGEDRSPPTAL
The assay can be described thus: MKNK1 kinase high ATP assay (TR-FRET). The conditions noted are these: high ATP (2 mM final), 15 min preincubation with enzyme, 30 min reaction at 22° C. It is filed as biochemical. Here is the method: MKNK1-inhibitory activity at high ATP of compounds of the present invention after their preincubation with MKNK1 was quantified employing the TR-FRET-based MKNK1 high ATP assay as described in the following paragraphs.
A recombinant fusion protein of Glutathione-S-Transferase (GST, N-terminally) and human full-length MKNK1 (amino acids 1-424 and T344D of accession number BAA 19885.1), expressed in insect cells using baculovirus expression system and purified via glutathione sepharose affinity chromatography, was purchased from Carna Biosciences (product no 02-145) and used as enzyme. As substrate for the kinase reaction the biotinylated peptide biotin-Ahx-IKKRKLTRRKSLKG (C-terminus in amide form) was used, which can be purchased e.g. from the company Biosyntan (Berlin-Buch, Germany).
For the assay 50 nL of a 100 fold concentrated solution of the test compound in DMSO was pipetted into a black low volume 384 well microtiter plate (Greiner Bio-One, Frickenhausen, Germany), 2 μL of a solution of MKNK1 in aqueous assay buffer [50 mM HEPES pH 7.5, 5 mM MgCl2, 1.0 mM dithiothreitol, 0.005% (v/v) Nonidet-P40 (Sigma)] was added and the mixture was incubated for 15 min at 22° C. to allow pre-binding of the test compounds to the enzyme before the start of the kinase reaction. Then the kinase reaction was started by the addition of 3 μL of a solution of adenosine-tri-phosphate (ATP, 3.3 mM=>final conc. in the 5 μL assay volume is 2 mM) and substrate (0.1 μM=>final conc. in the 5 μL assay volume is 0.06 μM) in assay buffer and the resulting mixture was incubated for a reaction time of 30 min at 22° C. The concentration of MKNK1 was adjusted depending of the activity of the enzyme lot and was chosen appropriate to have the assay in the linear range, typical concentrations were in the range of 0.003 μg/mL. The reaction was stopped by the addition of 5 μL of a solution of TR-FRET detection reagents (5 nM streptavidine-XL665 [Cisbio Bioassays, Codolet, France] and 1 nM anti-ribosomal protein S6 (pSer236)-antibody from Invitrogen [#44921G] and 1 nM LANCE EU-W1024 Labeled ProteinG [Perkin-Elmer, product no. AD0071]) in an aqueous EDTA-solution (100 mM EDTA, 0.1% (w/v) bovine serum albumin in 50 mM HEPES pH 7.5).
The resulting mixture was incubated for 1 h at 22° C. to allow the formation of complex between the phosphorylated biotinylated peptide and the detection reagents. Subsequently the amount of phosphorylated substrate was evaluated by measurement of the resonance energy transfer from the Eu-chelate to the streptavidine-XL. Therefore, the fluorescence emissions at 620 nm and 665 nm after excitation at 350 nm were measured in a TR-FRET reader, e.g. a Rubystar (BMG Labtechnologies, Offenburg, Germany) or a Viewlux (Perkin-Elmer). The ratio of the emissions at 665 nm and at […] was taken as the measure for the amount of phosphorylated substrate. The data were normalised (enzyme reaction without inhibitor=0% inhibition, all other assay components but no enzyme=100% inhibition).
On the technique in general: In TR-FRET formats the signal depends on donor and acceptor labels being close together.
A word on the IC50: it is the concentration that gives 50% inhibition. As for `CC(C)Oc1cc2[nH]ncc2cc1Nc1ncnc2[nH]c(Cl)cc12` [Example 40, 6-Chloro-N-[6-(propan-2-yloxy)-1H-indazol-5-yl]-7H-pyrrolo[2,3-d]pyrimidin-4-amine], it took 29 nM to reach half-maximal inhibition (IC50). The same measure for `COc1cc2[nH]ncc2cc1Nc1ncnc2[nH]cc(C(=O)N3CCN(C)CC3)c12` [Example 5, {4-[(6-methoxy-1H-indazol-5-yl)amino]-7H-pyrrolo[2,3-d]pyrimidin-5-yl}(4-methylpiperazin-1-yl)methanone]: 110 nM; for `COc1cc2[nH]ncc2cc1Nc1ncnc2[nH]c(CC(C)C)c(C(C)C)c12` [Example 56, N-(6-Methoxy-1H-indazol-5-yl)-6-(2-methylpropyl)-5-(propan-2-yl)-7H-pyrrolo[2,3-d]pyrimidin-4-amine]: 1 nM. The same measure for `CCOC(=O)c1cc2c(Nc3cc4cn[nH]c4cc3OC)ncnc2[nH]1` [Example 42, Ethyl 4-[(6-methoxy-1H-indazol-5-yl)amino]-7H-pyrrolo[2,3-d]pyrimidine-6-carboxylate]: 3 nM; for `Cc1cc2[nH]ncc2cc1Nc1ncnc2[nH]cc(F)c12` [Example 11, 5-Fluoro-N-(6-methyl-1H-indazol-5-yl)-7H-pyrrolo[2,3-d]pyrimidin-4-amine]: 74 nM. Molecule `COc1cc2[nH]ncc2cc1Nc1ncnc2[nH]c(C)cc12` [Example 37, N-(6-Methoxy-1H-indazol-5-yl)-6-methyl-7H-pyrrolo[2,3-d]pyrimidin-4-amine] came in with a concentration for half-maximal inhibition (IC50) of 23 nM. The same measure for `COc1cc2[nH]ncc2cc1Nc1ncnc2[nH]cc(C(=O)O)c12` [Example 4, 4-[(6-methoxy-1H-indazol-5-yl)amino]-7H-pyrrolo[2,3-d]pyrimidine-5-carboxylic acid]: 72 nM; for `CC(C)Oc1cc2[nH]ncc2cc1Nc1ncnc2[nH]cc(F)c12` [Example 25, 5-Fluoro-N-[6-(propan-2-yloxy)-1H-indazol-5-yl]-7H-pyrrolo[2,3-d]pyrimidin-4-amine]: 5 nM.

Molecule `Cc1ccc(S(=O)(=O)c2cc3c(Nc4cc5cn[nH]c5cc4OC(C)C)ncnc3[nH]2)cc1` [Example 53, 6-[(4-Methylphenyl)sulfonyl]-N-[6-(propan-2-yloxy)-1H-indazol-5-yl]-7H-pyrrolo[2,3-d]pyrimidin-4-amine] registered a half-inhibitory concentration (IC50) of 2 nM. The same measure for `COc1cc2[nH]ncc2cc1Nc1ncnc2[nH]c(C(=O)N3CCCCC3)c(Br)c12` [Example 60, {5-Bromo-4-[(6-methoxy-1H-indazol-5-yl)amino]-7H-pyrrolo[2,3-d]pyrimidin-6-yl}(piperidin-1-yl)methanone]: 2 nM. As for `O=C(O)c1c[nH]c2ncnc(Nc3cc4cn[nH]c4cc3F)c12` [Example 10, 4-[(6-Fluoro-1H-indazol-5-yl)amino]-7H-pyrrolo[2,3-d]pyrimidine-5-carboxylic acid], the figure is 14 nM. On to `COc1cc2[nH]ncc2cc1Nc1ncnc2[nH]cc(C#N)c12` [Example 35, 4-[(6-Methoxy-1H-indazol-5-yl)amino]-7H-pyrrolo[2,3-d]pyrimidine-5-carbonitrile], for which the IC50 stood at 1 nM. The same measure for `CC(C)Oc1cc2[nH]ncc2cc1Nc1ncnc2[nH]c(S(=O)(=O)c3ccccc3)cc12` [Example 52, 6-(Phenylsulfonyl)-N-[6-(propan-2-yloxy)-1H-indazol-5-yl]-7H-pyrrolo[2,3-d]pyrimidin-4-amine]: 2 nM; for `Fc1cc2[nH]ncc2cc1Nc1ncnc2[nH]cc(F)c12` [Example 9, 5-Fluoro-N-(6-fluoro-1H-indazol-5-yl)-7H-pyrrolo[2,3-d]pyrimidin-4-amine]: 29 nM. `COc1cc2[nH]ncc2cc1Nc1ncnc2[nH]c(C(=O)N3CCOC[C@H]3C)c(Br)c12` [Example 67, {5-Bromo-4-[(6-methoxy-1H-indazol-5-yl)amino]-7H-pyrrolo[2,3-d]pyrimidin-6-yl}[(3R)-3-methylmorpholin-4-yl]methanone] yielded a concentration for half-maximal inhibition (IC50) of 3 nM. In turn, `COc1cc2[nH]ncc2cc1Nc1ncnc2[nH]c(C(=O)N(C)C)c(Br)c12` [Example 59, 5-Bromo-4-[(6-methoxy-1H-indazol-5-yl)amino]-N,N-dimethyl-7H-pyrrolo[2,3-d]pyrimidine-6-carboxamide] registered an IC50 of 1 nM. The same measure for `COc1cc2[nH]ncc2cc1Nc1ncnc2[nH]cc(F)c12` [Example 3, 5-fluoro-N-(6-methoxy-1H-indazol-5-yl)-7H-pyrrolo[2,3-d]pyrimidin-4-amine]: 5 nM. As for `Fc1cc2[nH]ncc2cc1Nc1ncnc2[nH]c(Br)cc12` [Example 55, 6-Bromo-N-(6-fluoro-1H-indazol-5-yl)-7H-pyrrolo[2,3-d]pyrimidin-4-amine], the figure is 98 nM. As for `COc1cc2[nH]ncc2cc1Nc1ncnc2[nH]cc(C(=O)NC(C)C)c12` [Example 6, N-isopropyl-4-[(6-methoxy-1H-indazol-5-yl)amino]-7H-pyrrolo[2,3-d]pyrimidine-5-carboxamide], the figure is 16 nM; as for `COc1cc2[nH]ncc2cc1Nc1ncnc2[nH]c(C(=O)N3C[C@H]4C[C@@H]3CO4)c(Br)c12` [Example 65, {5-Bromo-4-[(6-methoxy-1H-indazol-5-yl)amino]-7H-pyrrolo[2,3-d]pyrimidin-6-yl}[(1R,4R)-2-oxa-5-azabicyclo[2.2.1]hept-5-yl]methanone], 4 nM; as for `COc1cc2[nH]ncc2cc1Nc1ncnc2[nH]c(S(=O)(=O)c3ccc(C)cc3)cc12` [Example 51, N-(6-Methoxy-1H-indazol-5-yl)-6-[(4-methylphenyl)sulfonyl]-7H-pyrrolo[2,3-d]pyrimidin-4-amine], 1 nM. Take `CC(C)NC(=O)c1c[nH]c2ncnc(Nc3cc4cn[nH]c4cc3OC(C)C)c12` [Example 31, N-(Propan-2-yl)-4-{[6-(propan-2-yloxy)-1H-indazol-5-yl]amino}-7H-pyrrolo[2,3-d]pyrimidine-5-carboxamide]: the IC50 is 94 nM.

For `COc1cc2[nH]ncc2cc1Nc1ncnc2[nH]c(C(=O)O)c(Br)c12` [Example 48, 5-Bromo-4-[(6-methoxy-1H-indazol-5-yl)amino]-7H-pyrrolo[2,3-d]pyrimidine-6-carboxylic acid], the half-maximal inhibitory concentration (IC50) was < 1 nM. On to `CN(C)C(=O)c1c[nH]c2ncnc(Nc3cc4cn[nH]c4cc3F)c12` [Example 16, 4-[(6-Fluoro-1H-indazol-5-yl)amino]-N, N-dimethyl-7H-pyrrolo[2,3-d]pyrimidine-5-carboxamide], for which the IC50 was 31 nM.

`COc1cc2[nH]ncc2cc1Nc1ncnc2[nH]c(C(=O)N3C[C@@H]4C[C@H]3CO4)c(Br)c12` [Example 64, {5-Bromo-4-[(6-methoxy-1H-indazol-5-yl)amino]-7H-pyrrolo[2,3-d]pyrimidin-6-yl}[(1S,4S)-2-oxa-5-azabicyclo[2.2.1]hept-5-yl]methanone] displayed a half-maximal inhibitory concentration (IC50) of 1 nM. Turning to `COc1cc2[nH]ncc2cc1Nc1ncnc2[nH]c(S(=O)(=O)c3ccccc3)cc12` [Example 50, N-(6-Methoxy-1H-indazol-5-yl)-6-(phenylsulfonyl)-7H-pyrrolo[2,3-d]pyrimidin-4-amine], the concentration for half-maximal inhibition (IC50) was < 1 nM.

For `COc1cc2[nH]ncc2cc1Nc1ncnc2[nH]c(CCCO)cc12` [Example 23, 3-{4-[(6-Methoxy-1H-indazol-5-yl)amino]-7H-pyrrolo[2,3-d]pyrimidin-6-yl}propan-1-ol], the IC50 amounted to 27 nM. As for `COc1cc2[nH]ncc2cc1Nc1ncnc2[nH]ccc12` [Example 2, N-(6-methoxy-1H-indazol-5-yl)-7H-pyrrolo[2,3-d]pyrimidin-4-amine], the figure is 17 nM; as for `CCc1[nH]c2ncnc(Nc3cc4cn[nH]c4cc3OC(C)C)c2c1C` [Example 27, 6-Ethyl-5-methyl-N-[6-(propan-2-yloxy)-1H-indazol-5-yl]-7H-pyrrolo[2,3-d]pyrimidin-4-amine], 3 nM. For `COc1cc2[nH]ncc2cc1Nc1ncnc2[nH]c(S(C)(=O)=O)cc12` [Example 21, N-(6-Methoxy-1H-indazol-5-yl)-6-(methylsulfonyl)-7H-pyrrolo[2,3-d]pyrimidin-4-amine], the IC50 worked out at 6 nM.

The record behind these values is US20150252047A1, “SUBSTITUTED INDAZOL-PYRROLOPYRIMIDINES USEFUL IN THE TREATMENT OF HYPERPROLIFERATIVE DISEASES” (BAYER PHARMA AKTIENGESELLSCHAFT, priority 2012, published 2015).
